From PMC11530593, “Structural mechanism of human HCN1 hyperpolarization-activated channel inhibition by ivabradine” (The Journal of Biological Chemistry, 2024) come the findings set out here.

In test [1] the target is T1, HCN1 mutant D140A (Homo sapiens, UniProt O60741, D140A).
T1 construct: Full-length WT or mutant human HCN1 were cloned into the pcDNA3.1 vector; expressed in transfected cells; host or cells: HeLa cells, pcDNA3.1 vector, transient lipofection
T1 sequence (O60741 1-890 D140A): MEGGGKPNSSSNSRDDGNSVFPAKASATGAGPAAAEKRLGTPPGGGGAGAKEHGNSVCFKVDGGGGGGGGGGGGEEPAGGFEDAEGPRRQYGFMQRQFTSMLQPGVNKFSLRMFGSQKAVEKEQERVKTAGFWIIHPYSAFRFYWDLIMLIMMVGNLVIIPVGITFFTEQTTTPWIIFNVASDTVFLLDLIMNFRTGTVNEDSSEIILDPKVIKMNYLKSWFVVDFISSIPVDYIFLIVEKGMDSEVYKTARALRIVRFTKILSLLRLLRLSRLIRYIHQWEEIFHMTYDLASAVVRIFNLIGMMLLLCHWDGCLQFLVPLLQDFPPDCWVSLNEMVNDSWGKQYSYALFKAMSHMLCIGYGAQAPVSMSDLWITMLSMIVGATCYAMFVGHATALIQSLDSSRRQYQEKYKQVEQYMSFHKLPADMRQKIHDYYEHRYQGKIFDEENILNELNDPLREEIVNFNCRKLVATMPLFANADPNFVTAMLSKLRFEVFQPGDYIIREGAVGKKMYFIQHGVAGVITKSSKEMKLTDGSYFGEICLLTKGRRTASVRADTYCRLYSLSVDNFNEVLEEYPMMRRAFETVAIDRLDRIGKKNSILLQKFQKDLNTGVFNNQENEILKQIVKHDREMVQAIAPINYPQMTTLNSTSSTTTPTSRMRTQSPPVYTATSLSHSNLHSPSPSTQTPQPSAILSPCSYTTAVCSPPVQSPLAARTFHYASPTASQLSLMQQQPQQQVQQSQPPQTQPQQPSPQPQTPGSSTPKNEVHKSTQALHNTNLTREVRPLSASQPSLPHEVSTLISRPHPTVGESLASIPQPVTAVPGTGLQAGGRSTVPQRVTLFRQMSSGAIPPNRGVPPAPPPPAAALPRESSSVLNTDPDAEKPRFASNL
Put plainly: Whole-cell patch-clamp, Ih inhibition, HCN1 mutant. Type of test: cell-based. On the procedure: (§1) To elucidate the contribution of these residues to the inhibitory effect of ivabradine, we introduced mutations in ivabradine-interacting residues, converting them into alanines (Fig. 2F).
(§2) Full-length WT or mutant human HCN1 were cloned into the pcDNA3.1 vector for electrophysiological experiments. HeLa cells (from Thermo Fisher Scientific) cultured in Dulbecco's modified Eagle's medium (from Solarbio Life Science) + 10% fetal bovine serum (from ExCell Bio) at 37 °C were transiently transfected using lipofection, and whole-cell patch-clamp recordings were obtained using the Axon 200B amplifier (Molecular Devices) and clampex software (https://www.moleculardevices.com/products/axon-patch-clamp-system/acquisition-and-analysis-software/pclamp-software-suite), 36 to 48 h posttransfection. The extracellular solution contained 110 mM NaCl, 0.5 mM MgCl2, 1.8 mM CaCl2, 5 mM Hepes, 30 mM KCl, and pH was adjusted to 7.4 with NaOH, while the pipette solution contained 130 mM KCl, 10 mM NaCl, 0.5 mM MgCl2, 1 mM EGTA, 5 mM Hepes, and pH was adjusted to 7.4 with KOH. The recordings were performed at room temperature, voltage-clamp mode, and filtered at 1 kHz. The sampling frequency was 10 kHz, and the series resistance was limited to 5 MΩ. To elicit channel currents, step pulses of 3 s duration ranging from −180 mV to −30 mV were applied, followed by a step to −180 mV lasting 1.25 s. The tail currents evoked by the second step were used to determine the voltage-dependent activation curves and calculate the midpoint of activation potential (V1/2). The half maximal inhibitory concentration (IC50) of drugs was determined by recording currents at a pulse of −140 mV and analyzing current amplitudes at varying drug concentrations. The IC50 value was calculated using the Hill equation.

For test [2], the target named is T2, HCN1 mutant W281A (Homo sapiens, UniProt O60741, W281A).
T2 construct: Full-length WT or mutant human HCN1 were cloned into the pcDNA3.1 vector; expressed in transfected cells; host or cells: HeLa cells, pcDNA3.1 vector, transient lipofection
T2 sequence (O60741 1-890 W281A): T1 sequence (O60741 1-890 D140A) with A140D, W281A
The test is described as follows: Whole-cell patch-clamp, Ih inhibition, HCN1 mutant. Type of test: cell-based. The settings on record: electrophysiological recordings, read-out: IC50 (Fig. 2F). On the procedure:
as §1, §2
For orientation: Patch clamp records ionic current or voltage across a cell membrane.

Structures are written as SMILES. Positions count from the first letter of the chain named.

Consider `COc1cc2c(cc1OC)CC(=O)N(CCCN(C)C[C@H]1Cc3cc(OC)c(OC)cc31)CC2` [ivabradine], for which the IC50 in test [1] (D140A mutant, electrophysiological recordings, read-out: IC50 (Fig. 2F)) was determined as 27.6 µM; in test [2], 17.4 µM. Moreover, the “change in potency by mutation” value in test [1] (D140A versus WT) is reported as “dramatic decrease”.

The IC50 is the concentration that gives 50% inhibition.
